Read-outs that look alike come from different tables or passages of the source.
Experiments:
Assay type in all cases: cell-based
[1] = test system: MCF7 human breast adenocarcinoma cells; test: cell proliferation assay, MCF7; conditions: Table 3 summary of most active compounds
Excerpt: (§1) In this Example, the warfarin neoglycosides of the invention were screened for anti-tumor activity in cell proliferation assays using the following tumor cells lines: A549—human lung adenocarcinoma; H1299—human lung adenocarcinoma (p53 null); HCT-15—human colorectal adenocarcinoma; HT-29—human colorectal adenocarcinoma; MCF7—human breast adenocarcinoma; NCI-H460—human lung adenocarcinoma; SF-268—human CNS adenocarcinoma; and SKOV-3—human ovarian adenocarcinoma.
(§2) All cell lines were maintained as previously reported (see Langenhan, J. M.; Peters, N. R.; Guzei, I. A.; Hoffmann, F. M.; Thorson, J. S. Proc. Natl. Acad. Sci. USA 2005, 102, 12305-12310, which is incorporated by reference herein). Cells were harvested using 0.25% trypsin and 0.1% EDTA and counted in a Cellometer Auto T4 cell counter (Nexcelom, Inc.) prior to dilution for assay plating. Cells were plated at a denity of 500 cells per well in 50 μL volumes in 384-well clear-bottom tissue culture plates (Corning-Costar, Inc.).
(§3) Compounds were added from the 384-well compound stock plates at a 1:100 dilution using a Biomek FX liquid handler equipped with a 384-channel head (Beckman Coulter, Inc.). The plates were incubated for 7 days at 37° C. in a 5% CO2 atmosphere prior to performing the assays. Calcein AM (acetoxymethyl ester) reagent and EthD-1 (30 μL, 10 μM CAM and 100 μM EthD-1) was added and the cells were incubated for 30 min at 37° C. […] resulting from incubation with Calcein AM and EthD-1 was read using a Safire-2 microplate reader at the appropriate wavelengths. To lyse the cells, 15 μL of CellTiter-Glo reagent (Promega Corporation, Inc.) was added and the cells were incubated for 10 min at room temperature with gentle agitation. The luminescence of each plate was re-read to confirm the observed inhibition.
(§4) IC50s for cell proliferation assays were determined for Calcein AM, the ratio of live/dead cells (Calcein AM/EthD-1), and CellTiter-Glo using XLfit 4.0 as previously described (see Langenhan, J. M.; Peters, N. R.; Guzei, I. A.; Hoffmann, F. M.; Thorson, J. S. Proc. Natl. Acad. Sci. USA 2005, 102, 12305-12310, which is incorporated by reference herein). The IC50 determined using the best fit curve for dosage response from any of the 3 assays is reported as the final IC50.

[2] = test system: HT-29 human colorectal adenocarcinoma cells; test: cell proliferation assay, HT-29; conditions: Table 3 summary of most active compounds, IC50, read-out: H729 Colorectal
Excerpt: as §1, §2, §3
as §4, with “IC50. The best fit curve is defined as the curve with the lowest standard error.” for “IC50.”

NCI/ADR-RES = test: cell proliferation assay, NCI/ADR-RES; conditions: Table 3 summary of most active compounds
Procedure: as §2, §3, §4

[3] = test system: A549 human lung adenocarcinoma cells; test: cell proliferation assay, A549; conditions: Table 3 summary of most active compounds, read-out: A549 Lung (+p53)
Excerpt: as §1, §2, §3
as §4, with “IC50. The best fit curve is defined as the curve with the lowest standard error.” for “IC50.”

[4] = test system: HCT-15 human colorectal adenocarcinoma cells; test: cell proliferation assay, HCT-15; conditions: Table 3 summary of most active compounds, IC50, read-out: HCT15 Colorectal
Excerpt: as §1, §2, §3
as §4, with “IC50. The best fit curve is defined as the curve with the lowest standard error.” for “IC50.”

[5] = test system: NCI-H460 human lung adenocarcinoma cells; test: cell proliferation assay, NCI-H460; conditions: Table 3 summary of most active compounds
Excerpt: as §1, §2, §3
as §4, with “IC50. The best fit curve is defined as the curve with the lowest standard error.” for “IC50.”

[6] = test system: SKOV-3 human ovarian adenocarcinoma cells; test: cell proliferation assay, SKOV-3; conditions: Table 3 summary of most active compounds, read-out: SKOV3 Ovarian
Excerpt: as §1, §2, §3
as §4, with “IC50. The best fit curve is defined as the curve with the lowest standard error.” for “IC50.”

[7] = test system: SF-268 human CNS adenocarcinoma cells; test: cell proliferation assay, SF-268; conditions: Table 3 summary of most active compounds, IC50, read-out: SF268 Giloblast
Excerpt: as §1, §2, §3, §4

[8] = test system: H1299 human lung adenocarcinoma (p53 null) cells; test: cell proliferation assay, H1299; conditions: Table 3 summary of most active compounds
Excerpt: as §1, §2, §3, §4

SMILES: CON(C(C)CC(c1ccccc1)c1c(O)c2ccccc2oc1=O)C1C[C@@H](O)[C@@H](O)CO1 (stereo partly drawn) [WARF Analog 10]
- IC50 [1]: 66 µM
- IC50 [2]: 88 µM
- IC50 (NCI/ADR-RES): 92 µM
- IC50 [3]: > 100 µM
- IC50 [4]: 12 µM
- IC50 [5]: > 100 µM
- IC50 [6]: > 100 µM
- IC50 [7]: > 100 µM
- IC50 [8]: 77 µM

SMILES: CON(C(C)CC(c1ccccc1)c1c(O)c2ccccc2oc1=O)C1OCC(O)C(O)C1O (mixture of isomers) [WARF Analog 23]
- IC50 ([1]; listed as L-lyxose): 18 µM
- IC50 ([2]; listed as L-lyxose): 47 µM
- IC50 (NCI/ADR-RES; listed as L-lyxose): 56 µM
- IC50 ([3]; listed as L-lyxose): 95 µM
- IC50 ([4]; listed as L-lyxose): 14 µM
- IC50 ([5]; listed as L-lyxose): > 100 µM
- IC50 ([6]; listed as L-lyxose): 60 µM
- IC50 ([7]; listed as L-lyxose): > 100 µM
- IC50 ([8]; listed as L-lyxose): 30 µM

SMILES: CON(C(C)CC(c1ccccc1)c1c(O)c2ccccc2oc1=O)C1OCC(O)C(O)C1O (mixture of isomers) [WARF Analog 22]
- IC50 ([1]; listed as D-ribose): 41 µM
- IC50 ([2]; listed as D-ribose): 77 µM
- IC50 (NCI/ADR-RES; listed as D-ribose): 66 µM
- IC50 ([3]; listed as D-ribose): > 100 µM
- IC50 ([4]; listed as D-ribose): 27 µM
- IC50 ([5]; listed as D-ribose): > 100 µM
- IC50 ([6]; listed as D-ribose): 60 µM
- IC50 ([7]; listed as D-ribose): 72 µM
- IC50 ([8]; listed as D-ribose): 44 µM

Source: patent publication US8278436B2, “Glycosylated warfarin analogs and uses thereof” (priority 2008, dated 2012)
